Measured values: US12077503B2, “Substituted cyclic amides and their use as herbicides” (FMC CORPORATION, priority 2015, dated 2024)

How the values were obtained:
Assay type in all cases: in vivo
[1] = test system: barnyardgrass (Echinochloa crus-galli); assay: Test A preemergence; conditions: for Plant response rating, Barnyardgrass: 125 g ai/ha, preemergence, 0 to 100 scale (0 no effect, 100 complete control); for Barnyardgrass plant response rating (0 to 100 scale): Preemergence, 0 is no effect, 100 is complete control
How it was run: (§1)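 Compounds were formulated in a non-phytotoxic solvent mixture with surfactant and applied as a preemergence directed soil spray after seeding, or sprayed postemergence over plants 2 to 10 cm tall at the one- to two-leaf stage. Evaluation after about 10 d compared treated with untreated controls, using a scale from 0 (no effect) to 100 (complete control).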

corn (Zea mays) [2] = assay: Test A preemergence; conditions: for Plant response rating, Corn: 125 g ai/ha, preemergence, 0 to 100 scale (0 no effect, 100 complete control); for Corn plant response rating (0 to 100 scale): Preemergence, 0 is no effect, 100 is complete control
How it was run: as §1

[3] = test system: crabgrass, large (Digitaria sanguinalis); assay: Test A preemergence; conditions: for Plant response rating, Crabgrass, Large: 125 g ai/ha, preemergence, 0 to 100 scale (0 no effect, 100 complete control); for Crabgrass, Large plant response rating (0 to 100 scale): Preemergence, 0 is no effect, 100 is complete control
How it was run: as §1

[4] = test system: giant foxtail (Setaria faberii); assay: Test A preemergence; conditions: for Plant response rating, Foxtail, Giant: 125 g ai/ha, preemergence, 0 to 100 scale (0 no effect, 100 complete control); for Foxtail, Giant plant response rating (0 to 100 scale): Preemergence, 0 is no effect, 100 is complete control
How it was run: as §1

[5] = test system: morningglory (Ipomoea spp.); assay: Test A preemergence; conditions: for Plant response rating, Morningglory: 125 g ai/ha, preemergence, 0 to 100 scale (0 no effect, 100 complete control); for Morningglory plant response rating (0 to 100 scale): Preemergence, 0 is no effect, 100 is complete control
How it was run: as §1

[6] = test system: pigweed (Amaranthus retroflexus); assay: Test A preemergence; conditions: for Plant response rating, Pigweed: 125 g ai/ha, preemergence, 0 to 100 scale (0 no effect, 100 complete control); for Pigweed plant response rating (0 to 100 scale): Preemergence, 0 is no effect, 100 is complete control
[7] = test system: velvetleaf (Abutilon theophrasti); assay: Test A preemergence; conditions: for Plant response rating, Velvetleaf: 125 g ai/ha, preemergence, 0 to 100 scale (0 no effect, 100 complete control); for Velvetleaf plant response rating (0 to 100 scale): Preemergence, 0 is no effect, 100 is complete control
How it was run: as §1

[8] = test system: wheat (Triticum aestivum); assay: Test A preemergence; conditions: for Plant response rating, Wheat: 125 g ai/ha, preemergence, 0 to 100 scale (0 no effect, 100 complete control); for Wheat plant response rating (0 to 100 scale): Preemergence, 0 is no effect, 100 is complete control
How it was run: as §1

[9] = test system: barnyardgrass (Echinochloa crus-galli); assay: Test A postemergence
How it was run: as §1

corn (Zea mays) [10] = assay: Test A postemergence
How it was run: as §1

[11] = test system: crabgrass, large (Digitaria sanguinalis); assay: Test A postemergence
How it was run: as §1

[12] = test system: giant foxtail (Setaria faberii); assay: Test A postemergence
How it was run: as §1

[13] = test system: morningglory (Ipomoea spp.); assay: Test A postemergence
How it was run: as §1

[14] = test system: pigweed (Amaranthus retroflexus); assay: Test A postemergence
How it was run: as §1

[15] = test system: velvetleaf (Abutilon theophrasti); assay: Test A postemergence
How it was run: as §1

[16] = test system: wheat (Triticum aestivum); assay: Test A postemergence
How it was run: as §1

[17] = test system: barnyardgrass (Echinochloa crus-galli); assay: Test B flooded paddy test; conditions: Flood, 0 to 100 scale where 0 is no effect and 100 is complete control, 13 to 15 d
How it was run: (§2)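 2-leaf plants; pots flooded 3 cm over soil; cpd added to paddy water; depth held; greenhouse 13–15 d; visual rating vs controls, 0 = no effect, 100 = complete control.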

[18] = test system: ducksalad (Heteranthera limosa); assay: Test B flooded paddy test; conditions: Flood, 0 to 100 scale where 0 is no effect and 100 is complete control, 13 to 15 d
How it was run: as §2

rice (Oryra sativa) = assay: Test B flooded paddy test; conditions: Flood, 0 to 100 scale where 0 is no effect and 100 is complete control, 13 to 15 d
How it was run: as §2

[19] = test system: sedge, umbrella (small-flower umbrella sedge, Cyperus difformis); assay: Test B flooded paddy test; conditions: Flood, 0 to 100 scale where 0 is no effect and 100 is complete control, 13 to 15 d
How it was run: as §2

[20] = 500 g ai/ha, postemergence, 0 to 100 scale, 0 no effect, 100 complete control
[21] = Postemergence, 125 g ai/ha, visual injury, 0 to 100 scale (0 no effect, 100 complete control), approx. 10 d
[22] = 1000 g ai/ha, postemergence, 0 to 100 scale, 0 no effect, 100 complete control

O=C1NCC(c2ccc(-c3ccccc3)cc2)C1C(=O)Nc1cccc(F)c1F (racemic) [Compound 366] was tested, and the “Plant response rating, Barnyardgrass” value [1] was 0, the “Barnyardgrass plant response rating (0 to 100 scale)” value (“Barnyardgrass plant response rating” below) ([1]; 500 g ai/ha) was 0 and the “Plant response rating, Corn” value (corn (Zea mays) [2]) was 0. The “Corn plant response rating (0 to 100 scale)” value (“Corn plant response rating” for short) (corn (Zea mays) [2]; 500 g ai/ha) was 0, the “Plant response rating, Crabgrass, Large” value [3] was 0 and the “Crabgrass, Large plant response rating (0 to 100 scale)” value (“Crabgrass, Large plant response rating” for short) ([3]; 500 g ai/ha) was 0. The “Plant response rating, Foxtail, Giant” value [4] was 0, the “Foxtail, Giant plant response rating (0 to 100 scale)” value (“Foxtail, Giant plant response rating” for short) ([4]; 500 g ai/ha) was 0 and the “Plant response rating, Morningglory” value [5] was 0. For the same compound, the “Morningglory plant response rating (0 to 100 scale)” value (shortened to “Morningglory plant response rating”) ([5]; 500 g ai/ha) was 0, the “Plant response rating, Pigweed” value [6] was 0 and the “Pigweed plant response rating (0 to 100 scale)” value (from here on “Pigweed plant response rating”) ([6]; 500 g ai/ha) was 0. The “Plant response rating, Velvetleaf” value [7] was 0, the “Velvetleaf plant response rating (0 to 100 scale)” value (“Velvetleaf plant response rating” below) ([7]; 500 g ai/ha) was 0 and the “Plant response rating, Wheat” value [8] was 0. For the same compound, the “Wheat plant response rating (0 to 100 scale)” value (from here on “Wheat plant response rating”) ([8]; 500 g ai/ha) was 0, the “Plant response rating, Barnyardgrass” value [9, 20] was 0 and the “Plant response rating, Barnyardgrass” value [9, 21] was 0. For the same compound, the “Plant response rating, Corn” value (corn (Zea mays) [10]; [20]) was 0, the “Plant response rating, Corn” value (corn (Zea mays) [10]; [21]) was 0 and the “Plant response rating, Crabgrass, Large” value [11, 20] was 0. The “Plant response rating, Crabgrass, Large” value [11, 21] was 0, the “Plant response rating, Foxtail, Giant” value [12, 20] was 0 and the “Plant response rating, Foxtail, Giant” value [12, 21] was 0. The “Plant response rating, Morningglory” value [13, 20] was 0, the “Plant response rating, Morningglory” value [13, 21] was 0 and the “Plant response rating, Pigweed” value [14, 20] was 0. For the same compound, the “Plant response rating, Pigweed” value [14, 21] was 0, the “Plant response rating, Velvetleaf” value [15, 20] was 0 and the “Plant response rating, Velvetleaf” value [15, 21] was 0. The “Plant response rating, Wheat” value [16, 20] was 0, the “Plant response rating, Wheat” value [16, 21] was 0 and the “Plant response rating, Barnyardgrass” value ([17]; 1000 g ai/ha) was 0. For the same compound, the “Plant response rating, Ducksalad” value ([18]; 1000 g ai/ha) was 0, the “Plant response rating, Rice” value (rice (Oryra sativa); 1000 g ai/ha) was 0 and the “Plant response rating, Sedge, Umbrella” value ([19]; 1000 g ai/ha) was 0.

Nc1c(NC(=O)C2C(=O)NCC2c2ccc(F)c(F)c2)ccc(F)c1F (racemic) [Compound 358] was tested, and the “Barnyardgrass plant response rating” value ([1]; 1000 g ai/ha) was 0, the “Corn plant response rating” value (corn (Zea mays) [2]; 1000 g ai/ha) was 0 and the “Crabgrass, Large plant response rating” value ([3]; 1000 g ai/ha) was 50. For the same compound, the “Foxtail, Giant plant response rating” value ([4]; 1000 g ai/ha) was 0, the “Morningglory plant response rating” value ([5]; 1000 g ai/ha) was 0 and the “Pigweed plant response rating” value ([6]; 1000 g ai/ha) was 0. For the same compound, the “Velvetleaf plant response rating” value ([7]; 1000 g ai/ha) was 0, the “Wheat plant response rating” value ([8]; 1000 g ai/ha) was 0 and the “Plant response rating, Barnyardgrass” value [9, 22] was 0. The “Plant response rating, Corn” value (corn (Zea mays) [10]; [22]) was 0, the “Plant response rating, Crabgrass, Large” value [11, 22] was 40 and the “Plant response rating, Foxtail, Giant” value [12, 22] was 30. For the same compound, the “Plant response rating, Morningglory” value [13, 22] was 0, the “Plant response rating, Pigweed” value [14, 22] was 0 and the “Plant response rating, Velvetleaf” value [15, 22] was 0. For the same compound, the “Plant response rating, Wheat” value [16, 22] was 0.

For Cn1nccc1NC(=O)C1C(=O)NCC1c1ccc(F)c(F)c1 (racemic) [Compound 362], the “Plant response rating, Barnyardgrass” value [1] was 0, the “Barnyardgrass plant response rating” value ([1]; 500 g ai/ha) was 0 and the “Plant response rating, Corn” value (corn (Zea mays) [2]) was 0. The “Corn plant response rating” value (corn (Zea mays) [2]; 500 g ai/ha) was 0, the “Plant response rating, Crabgrass, Large” value [3] was 0 and the “Crabgrass, Large plant response rating” value ([3]; 500 g ai/ha) was 0. The “Plant response rating, Foxtail, Giant” value [4] was 0, the “Foxtail, Giant plant response rating” value ([4]; 500 g ai/ha) was 0 and the “Plant response rating, Morningglory” value [5] was 0. For the same compound, the “Morningglory plant response rating” value ([5]; 500 g ai/ha) was 0, the “Plant response rating, Pigweed” value [6] was 0 and the “Pigweed plant response rating” value ([6]; 500 g ai/ha) was 0. For the same compound, the “Plant response rating, Velvetleaf” value [7] was 0, the “Velvetleaf plant response rating” value ([7]; 500 g ai/ha) was 0 and the “Plant response rating, Wheat” value [8] was 0. The “Wheat plant response rating” value ([8]; 500 g ai/ha) was 0, the “Plant response rating, Barnyardgrass” value [9, 20] was 0 and the “Plant response rating, Barnyardgrass” value [9, 21] was 0. The “Plant response rating, Corn” value (corn (Zea mays) [10]; [20]) was 0, the “Plant response rating, Corn” value (corn (Zea mays) [10]; [21]) was 0 and the “Plant response rating, Crabgrass, Large” value [11, 20] was 0. For the same compound, the “Plant response rating, Crabgrass, Large” value [11, 21] was 0, the “Plant response rating, Foxtail, Giant” value [12, 20] was 0 and the “Plant response rating, Foxtail, Giant” value [12, 21] was 0. For the same compound, the “Plant response rating, Morningglory” value [13, 20] was 0, the “Plant response rating, Morningglory” value [13, 21] was 0 and the “Plant response rating, Pigweed” value [14, 20] was 0. The “Plant response rating, Pigweed” value [14, 21] was 0, the “Plant response rating, Velvetleaf” value [15, 20] was 0 and the “Plant response rating, Velvetleaf” value [15, 21] was 0. The “Plant response rating, Wheat” value [16, 20] was 0, the “Plant response rating, Wheat” value [16, 21] was 0 and the “Plant response rating, Barnyardgrass” value ([17]; 250 g ai/ha) was 0. The “Plant response rating, Ducksalad” value ([18]; 250 g ai/ha) was 0, the “Plant response rating, Rice” value (rice (Oryra sativa); 250 g ai/ha) was 0 and the “Plant response rating, Sedge, Umbrella” value ([19]; 250 g ai/ha) was 0.
